Here are results for 2 molecules from publication PMC5333456, “Characterization of HSP90 isoforms in transformed bovine leukocytes infected with Theileria annulata” (Cellular Microbiology, 2016).

For experiment [1], the target named is T1, TA12105 (T. annulata cytoplasmic HSP90) (Theileria annulata, UniProt Q4UDU8). Briefly: intrinsic tryptophan fluorescence quenching (ATPase Km […]). Format: binding.
Experiment [2] deals with T1, TA12105 (T. annulata cytoplasmic HSP90). The experiment can be described thus: biochemical.

T1 sequence (Q4UDU8 whole entry): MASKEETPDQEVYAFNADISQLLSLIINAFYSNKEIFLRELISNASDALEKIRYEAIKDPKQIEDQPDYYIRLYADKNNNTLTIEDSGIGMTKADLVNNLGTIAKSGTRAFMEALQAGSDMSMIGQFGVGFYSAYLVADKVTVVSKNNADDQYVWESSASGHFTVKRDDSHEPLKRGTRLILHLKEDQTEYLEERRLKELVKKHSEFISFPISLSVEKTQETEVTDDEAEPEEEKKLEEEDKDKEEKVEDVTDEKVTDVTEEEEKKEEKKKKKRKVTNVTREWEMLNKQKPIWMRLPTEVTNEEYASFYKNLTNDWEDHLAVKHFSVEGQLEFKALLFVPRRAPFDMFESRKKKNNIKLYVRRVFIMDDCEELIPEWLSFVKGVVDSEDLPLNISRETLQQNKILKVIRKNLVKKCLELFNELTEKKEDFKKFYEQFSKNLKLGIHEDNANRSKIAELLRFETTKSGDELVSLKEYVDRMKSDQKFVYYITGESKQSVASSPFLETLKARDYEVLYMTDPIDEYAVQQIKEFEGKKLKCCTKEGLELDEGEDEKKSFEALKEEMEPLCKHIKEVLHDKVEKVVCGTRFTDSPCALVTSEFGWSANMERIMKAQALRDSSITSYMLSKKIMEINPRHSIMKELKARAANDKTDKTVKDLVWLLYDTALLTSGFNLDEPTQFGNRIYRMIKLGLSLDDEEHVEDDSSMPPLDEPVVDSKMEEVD

Molecule `Nc1ncnc2c1ncn2[C@@H]1O[C@H](COP(=O)(O)OP(=O)(O)OP(=O)(O)O)[C@@H](O)[C@H]1O` [ATP] displayed a Kd in experiment [1] of 179 µM.

Turning to `C=CCNC1=C2C[C@@H](C)C[C@H](OC)[C@H](O)[C@@H](C)/C=C(\C)[C@H](OC(N)=O)[C@@H](OC)/C=C\C=C(/C)C(=O)NC(=CC1=O)C2=O` [17-AAG], binding in experiment [2] was put at a Kd of 7.67 µM.

The term Kd denotes the equilibrium constant for the complex coming apart. The low end stands for a tighter complex, the high end for a looser complex.
